The values that follow come from patent US5439930A, “Biologically active n-acylprolydipeptides having antiamnestic, antihypoxic and anorexigenic effects” (Russian-American Institute for New Drug Development, priority 1992, dated 1995).

Holding throughout (type): in vivo
The subject of test [1] is memory decline evoked by maximal electroshock (MES) in randomly bred male albino rats. In words: Passive avoidance step-through, amnesia by maximal electroshock (MES). Particulars: for inhibition in vivo at 0.1 mg/kg: Rattus norvegicus, ip, 24 h, read-out: AA % (antiamnestic activity, Butler's modified formula); for inhibition in vivo at 0.1 mg/kg / Latency (sec.) Amnesia + subst. / AA % (antiamnestic activity, Butler's modified formula): 0.1 mg/kg i.p. 15 min before training; for Latency (sec.) Amnesia + subst.: MES after learning, retention 24 h later. Here is the method: (§1) Compounds according to the present invention, including the compounds described in Examples 1-11, were checked for their ability to prevent memory decline evoked by maximal electroshock (MES) or scopolamine in the passive avoidance step-through paradigm (equipment of Laffaette Co., USA). The experiments described herein (Examples 12, 13, 15, and 19) were carried out using randomly bred male albino rats of a weight of approximately 180-220 g. […] Amnesia was produced by transcorneal maximal electroshock immediately after learning or scopolamine (1 mg/kg, subcutaneously) administration 30 min. before learning. The retention was tested 24 hours later by the measurement of latency of the entering of the dark compartment.
(§2) The degree of antiamnestic activity was estimated according to Buttler's modified formula: [formula]
(§3) The higher the magnitude of this indicator the more is the antiamnestic activity.
Background: Protection in the maximal electroshock model is a classic sign of anticonvulsant action.

The subject of test [2] is phenazepam withdrawn male albino rats. In words: Threshold of aggressive behavior during phenazepam withdrawal. Particulars: immediately after the last administration of phenazepam (2 mg/kg i.p. daily for 57 days). Here is the method:
The influence of Compound I on withdrawal syndrome caused by the interruption of chronic administration of benzodiazepine tranquilizer phenazepam (T. A. Voronina et al., In Fenazepam; A. V. Bogatsky, Ed.; Naukova dumka Publishers: Kiev, 1982; pp. 67-169) was studied in experiments on male albino rats weighing 190-200 g at the beginning and 300-350 g at the end of the experiment.
Phenazepam (2 mg/kg intraperitoneally) or saline (control group of rats) were given once daily for 57 days. The withdrawal syndrome occurred 24-72 hours after the last injection. The withdrawal syndrome in rats consisted in "anxiogenic-like" state aggressiveness and accelerated development of kindled seizures caused by pentylentetrazol. Compound I was administered to the withdrawn rats in doses of 0.5 mg/kg intraperitoneally 15 minutes prior to testing.
The threshold of the aggressive behavior was determined in the experiment on the rats (R. Tedeshi et al., J. Pharmacol. Exp. Ther., 125, 28-34 (1959)). The paired rats were placed on the electrified floor; the strength of the current, which provokes the fighting, was registered.

For test [3], the system named is memory decline evoked by scopolamine in randomly bred male albino rats. In words: Passive avoidance step-through, amnesia by scopolamine. As to the method: as §1, §2, §3
For test [4], the system named is undertraining of the passive avoidance reflex, rats. In words: Passive avoidance with undertraining, different regimes of administration. As to conditions: 200 mg/kg i.p.
The nature of test [5]: Level of active dose for the described nootropic activities. Particulars: above-described nootropic activities. As to the method: The compounds of the present invention were assessed for their ability to prevent memory impairment induced by maximal electroshock, or scopolamine administration. Unlike N-acylpyrrolidine compounds of the type described by Tanaka et al., supra, the compounds of the present invention are not believed to inhibit prolyl endopeptidase activity. […] The Compound I prevents mental decline, induced by frontal lobectomy (Example 15), prenatal alcoholization or prenatal hypoxia (Example 16) and aging (Example 17).
In contrast to this, substances in accordance with the present invention exert their effects in a dose between about 0.1-0.5 mg/kg.

The mark [6] stands for this setting: 0.1 mg/kg 15 min before learning, scopolamine 1 mg/kg s.c.
Setting [7] is: 0.1 mg/kg 15 min before learning, scopolamine 1 mg/kg s.c. 30 min before trial.
The mark [8] stands for this setting: 200 mg/kg, scopolamine 1 mg/kg s.c.

Where a SMILES comes first, the peptide text is derived from it. The star is where a group is joined. Isovaleryl = CC(C)CC(=O)*; Hexanoyl = CCCCCC(=O)*; PhAc = O=C(Cc1ccccc1)*; Bz = O=C(c1ccccc1)*

For `CNC(=O)CNC(=O)[C@@H]1CCCN1C(=O)Cc1ccccc1` [XIV, N-phenylacetyl-L-prolylglycine N-methylamide] (PhAc-Pro-Gly-NHMe), the inhibition in vivo at 0.1 mg/kg in test [1] (MES amnesia) is -7.6%. Still for that read-out and setting: the same measure for `NC(=O)CCNC(=O)[C@@H]1CCCN1C(=O)c1ccccc1` [XII, N-benzoyl-L-prolyl-β-alanine amide]: 15.2%. In the case of `COC(=O)CCCNC(=O)[C@@H]1CCCN1C(=O)Cc1ccccc1` [XIX, N-phenylacetyl-L-prolyl-GABA methylester], the “Latency (sec.) Amnesia + subst.” value in test [1] turned out to be 95.8 s. Also, in test [1] (MES amnesia), the “AA % (antiamnestic activity, Butler's modified formula)” value came out at 45.4%. Take `O=C1CN=C(c2ccccc2Cl)c2cc(Br)ccc2N1` [Phenazepam, reference compound]: the “Aggression Threshold (mA)” value in test [2] stood at 2.16 ± 0.2 mA. For the molecule `CC(C)C[C@H](NC(=O)[C@@H]1CCCN1C(=O)Cc1ccccc1)C(N)=O` [XVII, N-phenylacetyl-L-prolyl-L-leucine amide] (PhAc-Pro-Leu-NH2), in test [1] (MES amnesia), the inhibition in vivo at 0.1 mg/kg turned out to be 7.9%. On to `NC(=O)C[C@H](NC(=O)[C@@H]1CCCN1C(=O)Cc1ccccc1)C(N)=O` [VI, N-phenylacetyl-L-prolyl-L-asparagine amide] (PhAc-Pro-Asn-NH2), for which, in test [1] (MES amnesia), the inhibition in vivo at 0.1 mg/kg was 26%. Further, the “Aa (antiamnestic activity)” value in test [3] (setting [6]) is listed as -4.3. In addition, the “Latency (sec.) Scopolamine + substance” value in test [3] (setting [7]) amounted to 46.3 s.

As to `CN(C)C(=O)CNC(=O)[C@@H]1CCCN1C(=O)Cc1ccccc1` [XV, N-phenylacetyl-L-prolylglycine dimethylamide] (PhAc-Pro-Gly-NMe2), the inhibition in vivo at 0.1 mg/kg in test [1] (MES amnesia) is 23%. On to `CCOC(=O)C[C@H](NC(=O)[C@@H]1CCCN1C(=O)Cc1ccccc1)C(=O)OCC` [V, N-phenylacetyl-L-prolyl-L-aspartic acid diethyl ester] (PhAc-Pro-Asp(OEt)-OEt), for which the inhibition in vivo at 0.1 mg/kg in test [1] (MES amnesia) stood at 29.5%. Also, the “Aa (antiamnestic activity)” value in test [3] (setting [6]) is recorded as -10. The “Latency (sec.) Scopolamine + substance” value in test [3] (setting [7]) is 48.1 s. For `NC(=O)CNC(=O)[C@@H]1CCCN1C(=O)Cc1ccccc1` [II, N-phenacetyl-L-prolylglycine amide] (PhAc-Pro-Gly-NH2), the “Latency (sec.) Amnesia + subst.” value in test [1] was determined as 56 s. In test [1] (MES amnesia), the “AA % (antiamnestic activity, Butler's modified formula)” value stood at 27%. The “Aa (antiamnestic activity)” value in test [3] (setting [6]) is listed as -9.0. For the same molecule, the “Latency (sec.) Scopolamine + substance” value in test [3] (setting [7]) came out at 45.6 s.

With `CCOC(=O)CC[C@H](NC(=O)[C@@H]1CCCN1C(=O)Cc1ccccc1)C(=O)OCC` [XVI, N-phenylacetyl-L-prolyl-L-glutamic acid diethyl ester] (PhAc-Pro-Glu(OEt)-OEt), the inhibition in vivo at 0.1 mg/kg in test [1] (MES amnesia) came to 58.3%. The same measure, in the same setting: with `CCOC(=O)[C@@H](NC(=O)[C@@H]1CCCN1C(=O)Cc1ccccc1)C(C)C` [IX, N-phenylacetyl-L-prolyl-L-valine ethyl ester] (PhAc-Pro-Val-OEt) the figure was 0.0001%; with `O=C(O)CNC(=O)[C@@H]1CCCN1C(=O)Cc1ccccc1` [XVIII, N-phenylacetyl-L-prolylglycine] (PhAc-Pro-Gly-OH), 9.8%; with `CCOC(=O)CNC(=O)[C@@H]1CCCN1C(=O)CC(C)C` [VIII, N-isovaleryl-L-prolylglycine ethyl ester] (Isovaleryl-Pro-Gly-OEt), 28%. Consider `NC(=O)CCNC(=O)[C@@H]1CCCN1C(=O)Cc1ccccc1` [IV, N-phenylacetyl-L-prolyl-β-alanine amide], for which, in test [1] (MES amnesia), the inhibition in vivo at 0.1 mg/kg was found to be 52%. Besides, the “Aa (antiamnestic activity)” value in test [3] (setting [6]) stood at 52.1. Further, in test [3] (setting [7]), the “Latency (sec.) Scopolamine + substance” value came to 94.9 s.

`CCOC(=O)CCNC(=O)[C@@H]1CCCN1C(=O)Cc1ccccc1` [III, N-phenacetyl-L-prolyl-β-alanine ethyl ester]: the “Latency (sec.) Amnesia + subst.” value in test [1] was 56 s. In addition, in test [1] (MES amnesia), the “AA % (antiamnestic activity, Butler's modified formula)” value is given as 29%. For the same molecule, the “Aa (antiamnestic activity)” value in test [3] (setting [6]) turned out to be 23.7. Moreover, the “Latency (sec.) Scopolamine + substance” value in test [3] (setting [7]) was 78.6 s. On to `NC(=O)CNC(=O)[C@@H]1CCCN1C(=O)c1ccccc1` [XIII, N-benzoyl-L-prolylglycine amide] (Bz-Pro-Gly-NH2), for which the inhibition in vivo at 0.1 mg/kg in test [1] (MES amnesia) is -17.6%. Same read-out and setting: with `CCOC(=O)CNC(=O)[C@@H]1CCCN1C(=O)c1ccccc1` [VII, N-benzoyl-L-prolylglycine ethyl ester] (Bz-Pro-Gly-OEt) the figure was 37%. Same read-out and setting: the same measure for `CCOC(=O)CCNC(=O)[C@@H]1CCCN1C(=O)c1ccccc1` [XI, N-benzoyl-L-prolyl-β-alanine ethyl ester]: 21.9%. As for `NC(=O)CN1CCCC1=O` [Piracetam, N-carbamido-methyl-pyrrolidone-2, reference compound], in test [1] (200 mg/kg, MES amnesia), the “AA % (antiamnestic activity)” value was found to be 30.5%. In test [3] (setting [8]), the “Aa (antiamnestic activity)” value worked out at 39.3 and the “Latency (sec.) Scopolamine + substance” value was determined as 64.2 s. For the same molecule, in test [4], the “Mnestic activity (Ma), administration 15 min. before retrieval” value is reported as -15%; the “Mnestic activity (Ma), administration 15 min. before trial” value came to 20.0%; the “Mnestic activity (Ma), administration immediately after trial” value was determined as 1.0%. The “Level of active dose” value in test [5] lay in the range of 200 to 800 mg/kg. Turning to `CCOC(=O)[C@@H](NC(=O)[C@@H]1CCCN1C(=O)c1ccccc1)C(C)C` [X, N-benzoyl-L-prolyl-L-valine ethyl ester] (Bz-Pro-Val-OEt), in test [1] (MES amnesia), the inhibition in vivo at 0.1 mg/kg was found to be 38%. In the case of `CCOC(=O)CNC(=O)[C@@H]1CCCN1CCCCc1ccccc1` [XXIII, N-phenylbutyl-L-prolyl-glycine ethylester], in test [1] (MES amnesia), the inhibition in vivo at 0.1 mg/kg was determined as 12.6%.

Regarding `CCOC(=O)[C@H](C)NC(=O)[C@@H]1CCCN1C(=O)Cc1ccccc1` [XX, N-phenylacetyl-L-prolyl-L-alanine ethyl ester] (PhAc-Pro-Ala-OEt), the inhibition in vivo at 0.1 mg/kg in test [1] (MES amnesia) was determined as 10.8%. On the same count and under the same terms, the same measure for `CCCCCC(=O)N1CCC[C@H]1C(=O)NCC(=O)OCC` [XXI, N-caproyl-L-prolylglycine ethyl ester] (Hexanoyl-Pro-Gly-OEt): 20.2%.
